Assay results: US20250009697A1, “COMPOSITION FOR INCREASING AMOUNT OF FOOD INGESTED AND/OR IMPROVING ANOREXIA, AND COMPOSITION FOR ACTIVATING TRANSIENT RECEPTOR POTENTIAL ANKYRIN 1” (HOUSE FOODS GROUP INC., priority 2021, published 2025)

Tests used:
Mock cell = assay: TRPA1 Activation Test 2: intracellular Ca2+ imaging assay 2-2, Mock cell; assay type: cell-based; settings: Table 9
Procedure: A hTRPA1 stably expressing cell line in which expression of hTRPA1 had been induced in advance by a conventional method was prepared in a 96 well clear bottom plate, and the hTRPA1 activating action of rhein (produced by Tokyo Chemical Industry Co., Ltd.) was tested. Specifically, after each well was washed with PBS, 50 μL of an assay buffer (Hanks' balanced salt solution containing no calcium ion or magnesium ion that contained 1 mM of CaCl2 dihydrate, 20 mM of HEPES, and 0.1% BSA) containing calcium fluorescent indicator Calbryte™ 520 AM (produced by AAT Bioquest) in a final concentration of 4 μM was added, followed by incubating at 33° C. for 45 minutes. After washing with the assay buffer, 100 μL of the assay buffer was added to each well. This plate was set to FlexStation 3 (Molecular Devices, LLC), and a fluorescence intensity (excitation wavelength 490 nm, fluorescence wavelength 525 nm) at 31° C. was measured every two seconds, and 30 seconds after the start of the measurement, 100 μL of an assay buffer containing a test sample (allyl isothiocyanate (AITC) of positive control or rhein) which was prepared to have a certain final concentration or DMSO was added. Then, a well in which an assay buffer containing ionomycin (having a final concentration of 10 μM after the addition) instead of the test samples was added was also prepared as a reference for fluorescence intensity.
The measurement was continued from the start of the measurement up to 120 seconds, and the TRPA1 activation ability of the test samples was calculated in accordance with the following formula.
Activation rate (%)=(Fmax[s]−F0)/(Fmax[i]−F0)×100 • Fmax[s]: The maximum value of the fluorescence intensity when the test sample or positive control was added • F0: The average value of the fluorescence intensity for 20 seconds after the start of the measurement (base line) • Fmax[i]: The maximum value of the fluorescence intensity when ionomycin was added […]

[1] = Anorexia Improving Test 3: cumulative amounts of food ingested of mice, rhein with or without A-967079; assay type: in vivo; settings: oral; for Cumulative amounts of food ingested of mice: rhein 100 μmol/kg body weight, A-967079 10 μmol/kg body weight
Procedure: Male ICR mice were housed in individual cages in which ALPHA-dri (Shepherd Specialty Papers) was laid, and were acclimatized and raised for at least one week or more while a powder feed (CE-2, CLEA Japan, Inc.) was given to the mice by using a powder feeder for mice (SN-950, Shinano Manufacturing Co., Ltd.). Then, for several days before the experiment, handling and oral administration training using a feeding needle (FG4202, Fuchigami Kikai Co., Ltd.) were conducted every day. To 9 week-old mice under ad libitum feeding conditions, a carrier solution (containing 2% of dimethyl sulfoxide and 98% of a 0.5% methyl cellulose solution in volume ratio) or a rhein solution (obtained by dissolving 8.53 mg of rhein in 1 mL of the carrier solution) was orally administered from 9:20 a.m. (10 mL/kg body weight). The dosage of rhein was 300 μmol/kg body weight in terms of molar concentration. Then, a feeder the mass of which had been measured in advance was set in the cage at 9:30 a.m. The masses of the feeder and the feed spilled in the cage 0.5, 1, 2, and 3 hours after the start of the feeding experiment were measured, and the ingested mass (g) at each time was measured (n=6). The ingested mass (g) of each mouse was measured in the same manner as in anorexia improving test 2 (the above item 5) except that 10 mL/kg body weight of a carrier solution, a rhein solution (100 μmol/kg body weight), an A-967079 solution (10 μmol/kg body weight), or a mixed solution of A-967079 and rhein (in 10 μmol/kg body weight and 100 μmol/kg body weight, respectively) was orally administered to the mouse. Results obtained by calculating the cumulative amounts of food ingested and conducting a multiple comparison (multiple t-test) by the Dunn-Bonferroni method are shown in Table 12.

O=C(O)c1cc(O)c2c(c1)C(=O)c1cccc(O)c1C2=O [Rhein, rhein]
Activation rate, Mock (Mock cell; test sample 100 μM): 3.49 ± 0.0595%
Activation rate, Mock (Mock cell; test sample 200 μM): 9.65 ± 0.143%
Cumulative amounts of food ingested of mice ([1]; 0.5 hour after the administration): 0.21 ± 0.033 g
Cumulative amounts of food ingested of mice ([1]; 1 hour after the administration): 0.25 ± 0.027 g
Cumulative amounts of food ingested of mice ([1]; 2 hours after the administration): 0.42 ± 0.020 g
Cumulative amounts of food ingested of mice ([1]; 3 hours after the administration): 0.49 ± 0.035 g
Significant increase in the cumulative amounts of food ingested where A-967079 was administered (in words) ([1]; rhein 100 μmol/kg with A-967079 10 μmol/kg): not observed
